From patent US12201620B2, “Compositions and methods for treating chemotherapy resistant cancer” (The Brigham And Women's Hospital, Inc., priority 2016, dated 2025)
“Also recorded” adds a separate entry of the source. Residues, ends and D or L forms follow the SMILES beside them. *: point of attachment. Cbz = O=C(OCc1ccccc1)*

How the values were obtained:
PPM1D = PPM1D degradation reporter (EGFP/mCherry ratio); type: cell-based, human; details: Molm13 cells, MG132 10 μM, 6 hours
Source text: The line represents the locally weighted scatterplot smoothing (LOESS) of 0.1. Overlaid are frame-shift and non-sense mutations (black bars) identified in the blood cells of 29,562 persons as described in FIG. 2A. FIG. 8B is a vector map of the degradation reporter vector, with different PPM1D cDNA constructs inserted. FIG. 8C is a graph showing EGFP/mCherry ratio for Molm13 cells with overexpression of wild type PPM1D, truncated PPM1D or the C-terminal end of PPM1D. FIG. 8D is a graph showing EGFP/mCherry ratio for Molm13 p53^−/− cells with overexpression of wild type PPM1D, truncated PPM1D or the C-terminal end of PPM1D. FIG. 8E is a graph showing EGFP/mCherry ratio in Molm13 cells before and after exposure to MG132 (10 μM, 6 hours), normalized to pre-treatment values. […]
A reporter vector was generated in which wild-type PPM1D cDNA (wt), PPM1D truncation mutants, or the last 80 amino-acids (C-terminal region) were cloned in frame with GFP, so the level of expression of the PPM1D sequences could be monitored by GFP expression (FIG. 8B, Table 1).
The fluorescence level of mCherry, which is expressed following an IRES sequence, provided an internal control for vector expression in each cell. […]

[1] = test system: Molm13 PPM1D-mutant pooled cells and control pooled cells; assay: In vitro competition experiment, PPM1D-mutant cells mixed with control cells; type: cell-based, human; details: PPM1D mutant cells mixed with control cells
Experimental: FIG. 2B provides immunoblots of whole cell lysates from Molm13 control cells (control), PPM1D-mutant pooled clones and PPM1D frame-shift (fs) mutant single cell clones probed with anti-PPM1D and anti-Actin. […] FIG. 2D is a plot depicting viability assays in Molm13 PPM1D-mutant or control single cells clones that were treated with increasing concentrations of cyclophosphamide for 72 hours. FIG. 2E is a plot depicting viability assays in Molm13 PPM1D-mutant or control single cells clones that were treated with increasing concentrations of cisplatin for 72 hours. […] FIG. […] FIG. […] PPM1D and control sgRNAs were identified through their fluorophores.
(§1) 72 hour cell viability analysis in Molm13 PPM1D-mutant and control single cell clones after exposure to increasing doses of GSK2830371. FIG. 10F is a graph showing percent Annexin V positive cells in cells treated with PPM1D inhibitor or vehicle. Annexin V staining and flow cytometric analysis of Molm13 PPM1D-mutant and control single cell clones exposed to 3 μM of GSK2830371. *=p<0.05, **=p<0.01, ***=p<0.001
(§2) To study the sensitivity of PPM1D truncating mutations to chemotherapy exposure, frame-shift mutations were introduced in the PPM1D gene in Molm13 AML cells, which are TP53 wild-type, using CRISPR-Cas9.

[2] = test system: Molm13 PPM1D-mutant and control single cell clones; assay: 72-hour cell viability analysis; type: cell-based, human; details: for viability of PPM1D-mutant cells versus control cells in the presence of chemotherapeutic agent: 72 hours, increasing concentrations
Experimental: FIG. 2B provides immunoblots of whole cell lysates from Molm13 control cells (control), PPM1D-mutant pooled clones and PPM1D frame-shift (fs) mutant single cell clones probed with anti-PPM1D and anti-Actin. […] FIG. 2D is a plot depicting viability assays in Molm13 PPM1D-mutant or control single cells clones that were treated with increasing concentrations of cyclophosphamide for 72 hours. FIG. 2E is a plot depicting viability assays in Molm13 PPM1D-mutant or control single cells clones that were treated with increasing concentrations of cisplatin for 72 hours. […] FIG. 2G is a plot depicting flow cytometric readout of competition experiment with 5% pooled Molm13 PPM1D-mutant cells and 95% pooled Molm13 control cells exposed to 350 nM Cyclophosphamide or vehicle for 24 days. FIG. 2H is a plot depicting flow cytometric readout of competition experiment with 5% pooled Molm13 PPM1D-mutant cells and 95% pooled Molm13 control cells exposed to 1 μM Cisplatin or vehicle for 24 days. […] PPM1D and control sgRNAs were identified through their fluorophores.
The line represents the locally weighted scatterplot smoothing (LOESS) of 0.1. […] FIG. 8B is a vector map of the degradation reporter vector, with different PPM1D cDNA constructs inserted. FIG. 8C is a graph showing EGFP/mCherry ratio for Molm13 cells with overexpression of wild type PPM1D, truncated PPM1D or the C-terminal end of PPM1D. FIG. 8D is a graph showing EGFP/mCherry ratio for Molm13 p53^−/− cells with overexpression of wild type PPM1D, truncated PPM1D or the C-terminal end of PPM1D. FIG. 8E is a graph showing EGFP/mCherry ratio in Molm13 cells before and after exposure to MG132 (10 μM, 6 hours), normalized to pre-treatment values. FIG. 8F is a plot showing cell viability analysis in Molm13 control cells (control), Molm13 PPM1D truncating mutant cells (PPM1D mutant) and Molm13 cells with overexpression of wild-type PPM1D (WT overexpression). […] For all experiments the following apply: *=p<0.05, **=p<0.01, ***=p<0.001,****=p<0.0001
as §1
To study the role of PPM1D mutations in chemotherapy resistance, mutations in PPM1D were induced using the CRISPR-Cas9 system. […] Using sequence verified PPM1D mutant (fs) and empty vector control Molm13 cells, the effects of mutant and wild type PPM1D in the response to DNA damaging chemotherapy were analyzed. […] (FIG. 1C).
as §2

PPM1D-mutant cells = assay: In vivo competition experiment in bone marrow chimeras treated with cytarabine; details: mice
Source text: FIG. 5 provides an experimental schema of an in vivo competition experiment. Bone marrow chimaeras were generated by transplanting Mx-Cre Cas9 cKit^+Cas9 cells transduced with a BFP-tagged sgRNA targeting exon 6 of PPM1D or a tRFP-tagged control sgRNA into lethally-irradiated syngeneic recipients in a 1:5 ratio.
PPM1D and control sgRNAs were identified through their fluorophores. […] […] PPM1D and control sgRNAs were identified through their fluorophores.
Whether PPM1D mutations confer resistance to chemotherapy in vivo was examined. In another experiment, bone marrow chimeras were generated using Mx-Cre Cas9 c-Kit^+ cells that were transduced with a BFP-tagged sgRNA targeting exon 6 of PPM1D or a tRFP-tagged control sgRNA and transplanted into lethally-irradiated syngeneic recipients in a 1:5 ratio (FIG. 5). Mice were treated with cytarabine or vehicle after hematopoietic reconstitution.

[3] = test system: Molm13 PPM1D-mutant and control single cell clones; assay: BrdU staining and flow cytometric analysis (cell cycle); type: cell-based, human; details: 100 nM cytarabine, 24 hours
[4] = test system: Molm13 PPM1D-mutant and control single cell clones; assay: Annexin V staining and flow cytometric analysis; type: cell-based, human; details: 400 nM cytarabine, 24 hours
Source text: FIG. 9E is a chart depicting the consensus sequence of PPM1D based on substrate analysis of 43 substrate candidates of PPM1D. FIG. 9F depicts 43 potential PPM1D substrate sites on pSer/Thr residues on 25 proteins. […] Only localized sites were considered. Figure discloses SEQ ID NOS 4-20 and 20-31, respectively, in order of appearance. FIG. 9G depicts a schema illustrating the components of the DNA-damage response pathway that are targeted by PPM1D in leukemia cells, based on the results from the phosphoproteomics analysis. Phospho-targets of PPM1D identified by mass spectrometry (FDR<0.1) are shown in bold. Predicted PPM1D target sites that were based on the identified consensus sequence with a glutamine at +1 and >2 acidic residues (p=3.595e-13, Fisher's exact test) are shown in italics.
as §1

CC(C)C[C@@H](C=O)NC(=O)[C@H](CC(C)C)NC(=O)[C@H](CC(C)C)NC(=O)OCc1ccccc1 [MG132] (Cbz-Leu-Leu-Leu-aldehyde)
degradation of PPM1D constructs (EGFP/mCherry ratio) (PPM1D): decreased degradation of wild-type and C-terminal PPM1D, but not of the truncating mutants

O=P1(N(CCCl)CCCl)NCCCO1 (stereo not drawn) [Cyclophosphamide]
competitive advantage of PPM1D-mutant cells under chemotherapy [1]: PPM1D mutant cells had a competitive advantage
viability of PPM1D-mutant cells versus control cells in the presence of chemotherapeutic agent [2]: increased viability at 72 hours

O=C1/C(=C/c2cccs2)CC/C1=C\c1cccs1 [CCT007093]
sensitivity of PPM1D-mutant cells versus control cells to single agent PPM1D inhibitor, cell viability ([2]; 72 hour, increasing doses): increased sensitivity to treatment with the PPM1D inhibitor CCT007093 in comparison to wild-type (wt) control cells; also recorded: increased sensitivity to PPM1D inhibition with either compound in comparison to wild type control cells

N.N.[Cl][Pt][Cl] [Cisplatin]
viability of PPM1D-mutant cells versus control cells in the presence of chemotherapeutic agent [2]: increased viability at 72 hours

Nc1ccn([C@@H]2O[C@H](CO)[C@@H](O)[C@@H]2O)c(=O)n1 [Cytarabine]
competitive advantage of PPM1D-mutant cells under chemotherapy [1]: PPM1D mutant cells had a competitive advantage
PPM1D-mutant cells in the peripheral blood after cytarabine treatment (PPM1D-mutant cells; 1:5 chimeras, several rounds of cytarabine): significant, selective increase of PPM1D-mutant cells in the peripheral blood
PPM1D-mutant hematopoietic stem and progenitor cells in the bone marrow (PPM1D-mutant cells; 12 weeks, 3 rounds of cytarabine): also increased
viability of PPM1D-mutant cells versus control cells in the presence of chemotherapeutic agent [2]: increased resistance to Cytarabine in PPM1D mutant cells compared to empty vector controls; also recorded: resistance to treatment with Cytarabine
viability of PPM1D-mutant cells versus control cells in the presence of chemotherapeutic agent ([2]; listed as cytarabine): increased viability at 72 hours
progression to G2/M phase of PPM1D-mutant versus control cells after chemotherapy [3]: increased progression to G2/M phase
apoptosis of PPM1D-mutant versus control cells after chemotherapy, Annexin V staining [4]: decreased apoptosis
